Laboratory results taken from patent publication US4668677A, “4-phenylphthalazine derivatives, their preparation and their use as pharmaceuticals” (Mitsubishi Chemical Industries Limited, priority 1984, dated 1987).
Where a name gives a salt, the structure may show the parent alone.

What was measured:
blood platelets = test: Activity to inhibit the aggregation of blood platelets (collagen, ex vivo after oral administration); format: in vivo, rat (male Wistar-ST strain); conditions: Rattus norvegicus, Platelet; 10 mg/Kg oral, 1 hour after administration; collagen 7 to 10 μg/ml; read-out: Inhibitory rate (blood platelet aggregation)
Protocol: Male Wistar-ST strain rats of an average body weight of 250 g were used, a group consisting of 8 animals. The test compound indicated in the following Table 1 was orally administered to rats in the form of a suspension in a 1% tragacanth aqueous solution at 4 ml/Kg (the test compound 10 mg/Kg).
One hour after the administration, blood samples were obtained from the carotid artery by means of a cannule. […] Tubes were turned upside-down and then subjected to centrifugation at 200×g over 15 minutes to assign the supernatant as a platelet-rich plasma (PRP). The residue was further centrifuged at […] over 15 minutes to assign the supernatant as a platelet-poor plasma (PPP). These supernatants were applied for determining the ability to aggregate blood platelets. […] As an aggregation inducing agent, collagen (availale from Hormon-chemie A.G.) was used at a concentration of 7 to 10 μg/ml.
Inhibitory rate to aggregate blood platelets was calculated according to the following equation: [formula] A: […] in the group to which the 1% tragacanth solution alone was given (Control)
B: Aggregation rate in the group to which the tragacanth solution of the test compound was given.

in vivo = conditions: rat, po, rats
rabbits = test: Anti-thrombotic activity: arachidonic acid-induced mortality in rabbits; format: in vivo, rabbit (male New Zealand White); conditions: of 4 rabbits
Protocol: (§1) Male ICR-JCL strain mice with an average body weight of about 25 g and male New Zealand White rabbits with an average body weight of about 3 Kg were used.
Where rabbits were used as experimental animals, a suspension of the test compound in a 1% tragacanth aqueous solution was orally administered to animals at 5 ml/Kg. Two hours after the administration, an arachidonic acid solution dissolved in a 0.1M potassium carbonate solution was injected into pinna vein at 1.4 mg/Kg.
Evaluation of activity was effected with mortality at the time when arachidonic acid given. If survived at the first administration of arachidonic acid, arachidonic acid was administered after 6 hours, 24 hours, 48 hours and 72 hours from the administration of the test compound, respectively, and mortality was determined in respective cases.

mice = test: Anti-thrombotic activity: arachidonic acid-induced mortality in mice; format: in vivo, mouse (male ICR-JCL strain); conditions: for Survival time of dead mice: arachidonic acid 100 mg/Kg i.v.; for Mortality: arachidonic acid 100 mg/Kg i.v. after 1 hour
Protocol: as §1
Where mice were used as experimental animals, a suspension of the test compound indicated in Table 3 in a 1% tragacanth aqueous solution was orally administered to animals at 20 ml/Kg. One hour after the administration, an arachidonic acid (PL-biochemical Co., Inc.) solution dissolved in a 0.1M sodium carbonate aqueous solution was intravenously given at 100 mg/Kg. Evaluation of activity was effected with the time from the administration of arachidonic acid up to the death of animals as well as mortality.

femoral artery [1] = test: Action on blood flow volume in femoral artery; format: in vivo, rabbit (male New Zealand White)
Protocol: (§2) Male New Zealand White rabbits (body weight of 2.8 Kg to 3.5 Kg) were used and anesthetized with pentobarbital sodium. Blood flow volumes in the carotid artery and femoral artery were measured and recorded via a non-blood observing type of a probe for measuring blood flow volume. Also, blood pressure in femoral artery was simultaneously measured and recorded with measurement of blood flow.
(§3) The compound of this invention was dissolved in an aqueous solution containing 1% tartaric acid and 1% dimethylacetamide, while papaverine hydrochloride dissolved in 0.9% physiological saline. These test compounds were intravenously given through a residual polyethylene tube within femoral vein.

femoral artery [2] = test: Blood pressure in femoral artery, topical cerebral blood flow test; format: in vivo, rabbit (male New Zealand White)
Protocol: as §3
(§4) Physiol. Scand., 67, 1 (1966); "Kokyu to Junkan" (in Japanese), 15, 435 (1967); the Journal of the Pharmacological Society of Japan, 71, 709 (1975)]. Simultaneously, blood pressure in femoral artery was also determined. Preparation and administration of test compounds were carried out in the same manner as in the above item (6).

femoral artery [3] = test: Action on blood pressure in femoral artery; format: in vivo, rabbit (male New Zealand White)
Protocol: as §2, §3

Thoracic aorta = test: Calcium antagonistic activity (relaxation of thoracic aorta); format: cell-based, rat (male Wistar strain); conditions: Rattus norvegicus; final concentration 10 μM; 10 mM CaCl2
Protocol: Thoracic aorta was removed from male Wistar strain rats with a body weight of 350 g to 450 g and then spiral-shaped pieces of aorta were prepared therefrom. […] Thereafter, samples were further stabilized in Krebs-Henseleit solution containing no CaCl2 over 1 hour and then in a 80 mM KCl nutritive liquid wherein NaCl was exchanged with an equimolar KCl (depolarized liquid) over a further one hour. Then, samples were washed with the depolarized liquid and loaded with a static tension of 1.0 g. When CaCl2 was added to the nutritive liquid so as to reach a final concentration of 10 mM, tension was produced in samples and, after 15-20 minutes from the addition of CaCl2, the maximum tension was obtained. At this point, test compounds were applied and relaxing activity of test compounds was evaluated. Tension was determined in equal dimension.
Relaxation rate was calculated according to the following equation: [formula] A: Maximum tension generated B: Generated tension retained after administration of test compound
All test compounds were given in the form of a solution in dimethyl sulfoxide at a dose of 0.1 ml, whereupon a final concentration of dimethyl sulfoxide itself was adjusted to 0.5 V/V %.

cerebral cortex = test: Activity to increase topical cerebral blood flow, cerebral cortex (heat clearance method); format: in vivo, rabbit (male New Zealand White); conditions: change in blood flow expressed in terms of voltage
Protocol: as §3, §4

carotid artery = test: Action on blood flow volume in carotid artery; format: in vivo, rabbit (male New Zealand White)
Protocol: as §2, §3

candate nucleus = test: Activity to increase topical cerebral blood flow, candate nucleus (heat clearance method); format: in vivo, rabbit (male New Zealand White); conditions: change in blood flow expressed in terms of voltage
Protocol: as §3, §4

CC(C)(C)Nc1nnc(-c2ccccc2)c2ccccc12 [compound 6]
inhibition at 10 mg/kg (blood platelets): 0%

CCC(C)CNc1nnc(-c2ccccc2)c2ccccc12 (stereo not shown) [compound 9]
LD50 (in vivo): 2180 mg/kg | inhibition at 10 mg/kg (blood platelets): 79.2%

CCCCCNc1nnc(-c2ccccc2)c2ccccc12 [compound 7]
LD50 (in vivo): 1780 mg/kg | inhibition at 10 mg/kg (blood platelets): 6.2%

CCC(C)Nc1nnc(-c2ccccc2)c2ccccc12 (stereo not shown) [compound 5]
inhibition at 10 mg/kg (blood platelets): 0%

c1ccc(-c2nnc(NC3CCCC3)c3ccccc23)cc1 [compound 13]
inhibition at 10 mg/kg (blood platelets): 0%

CC(C)C(C)Nc1nnc(-c2ccccc2)c2ccccc12 (stereo not shown) [compound 10]
LD50 (in vivo): 2530 mg/kg | inhibition at 10 mg/kg (blood platelets): 54.1%

CC(C)CC(C)Nc1nnc(-c2ccccc2)c2ccccc12 (stereo not shown) [compound 16]
inhibition at 10 mg/kg (blood platelets): 0%

Clc1ccccc1CN1CCc2sccc2C1 [Ticlopidine, ticlopidine, reference compound]
Mortality (number of rabbits) (rabbits; 30 mg/Kg oral, 2 hrs. after administration): 4 | Mortality (number of rabbits) (rabbits; 100 mg/Kg oral, 2 hrs. after administration): 3 | Mortality (number of rabbits) (rabbits; 100 mg/Kg oral, 6 hrs. after administration): 1 | Survival time of dead mice (mice; 300 mg/Kg oral): 81 ± 13 s | Mortality (mice; 300 mg/Kg oral): 100% | Survival time of dead mice (mice; 1000 mg/Kg oral): 128 ± 18 s | Mortality (mice; 1000 mg/Kg oral): 100%

CC(C)CCNc1nnc(-c2ccccc2)c2ccccc12 [compound 11]
inhibition at 10 mg/kg (blood platelets): 24%

CCCNc1nnc(-c2ccccc2)c2ccccc12 [compound 1]
inhibition at 10 mg/kg (blood platelets): 27.6%

CCC(CC)CNc1nnc(-c2ccccc2)c2ccccc12 [compound 15]
inhibition at 10 mg/kg (blood platelets): 14.6%

CCCCNc1nnc(-c2ccccc2)c2ccccc12 [compound 3]
inhibition at 10 mg/kg (blood platelets): 0%

CCCCCCCCNc1nnc(-c2ccccc2)c2ccccc12 [compound 20]
inhibition at 10 mg/kg (blood platelets): 0%

c1ccc(-c2nnc(NC3CCCCC3)c3ccccc23)cc1 [compound 18]
inhibition at 10 mg/kg (blood platelets): 0%

CC(C)(C)CCNc1nnc(-c2ccccc2)c2ccccc12 [compound 17]
inhibition at 10 mg/kg (blood platelets): 17.3%

COc1ccc(Cc2nccc3cc(OC)c(OC)cc23)cc1OC [Papaverine hydrochloride, papaverine hydrochloride, reference compound]
Blood flow volume in femoral artery, A: Before administration (femoral artery [1]; 0.5 mg/Kg i.v.): 16.8 mL/min | Blood flow volume in femoral artery, B: After administration (femoral artery [1]; 0.5 mg/Kg i.v.): 23.0 mL/min | Blood flow volume in femoral artery, C: Increase degree (femoral artery [1]; 0.5 mg/kg i.v.): 6.1 mL/min | Blood flow volume in femoral artery, D: Increase rate (femoral artery [1]; 0.5 mg/kg i.v.): 40.3% | Blood flow volume in femoral artery, A: Before administration (femoral artery [1]; 1.0 mg/Kg i.v.): 30.1 mL/min | Blood flow volume in femoral artery, B: After administration (femoral artery [1]; 1.0 mg/Kg i.v.): 40.0 mL/min | Blood flow volume in femoral artery, C: Increase degree (femoral artery [1]; 1.0 mg/kg i.v.): 9.8 mL/min | Blood flow volume in femoral artery, D: Increase rate (femoral artery [1]; 1.0 mg/kg i.v.): 32.7% | Lowering of blood pressure in femoral artery (femoral artery [2]; 0.3 mg/Kg i.v.): 15.0 ± 1.2% | Lowering of blood pressure in femoral artery (femoral artery [2]; 1 mg/Kg i.v.): 20.8 ± 3.4% | Blood pressure in femoral artery, A: Before administration (femoral artery [3]; 0.5 mg/kg i.v.): 94.8 mmHg | Blood pressure in femoral artery, B: After administration (femoral artery [3]; 0.5 mg/kg i.v.): 82.4 mmHg | Blood pressure in femoral artery, E: Lowering degree (femoral artery [3]; 0.5 mg/kg i.v.): 12.4 mmHg | Blood pressure in femoral artery, F: Lowering rate (femoral artery [3]; 0.5 mg/kg i.v.): 13.2% | Blood pressure in femoral artery, A: Before administration (femoral artery [3]; 1.0 mg/kg i.v.): 91.8 mmHg | Blood pressure in femoral artery, B: After administration (femoral artery [3]; 1.0 mg/kg i.v.): 68.8 mmHg | Blood pressure in femoral artery, E: Lowering degree (femoral artery [3]; 1.0 mg/kg i.v.): 23.1 mmHg | Blood pressure in femoral artery, F: Lowering rate (femoral artery [3]; 1.0 mg/kg i.v.): 25.3% | inhibition at 10 µM (Thoracic aorta): 0% | Increase in topical blood flow volume, Cerebral cortex (cerebral cortex; 0.3 mg/Kg i.v.): 0.57 ± 0.11 Δ μV | Increase in topical blood flow volume, Cerebral cortex (cerebral cortex; 1 mg/Kg i.v.): 1.05 ± 0.21 Δ μV | Blood flow volume in carotid artery, A: Before administration (carotid artery; 0.5 mg/Kg i.v.): 18.6 mL/min | Blood flow volume in carotid artery, B: After administration (carotid artery; 0.5 mg/Kg i.v.): 38.7 mL/min | Blood flow volume in carotid artery, C: Increase degree (carotid artery; 0.5 mg/Kg i.v.): 20.1 mL/min | Blood flow volume in carotid artery, D: Increase rate (carotid artery; 0.5 mg/Kg i.v.): 108.3% | Blood flow volume in carotid artery, A: Before administration (carotid artery; 1.0 mg/Kg i.v.): 19.3 mL/min | Blood flow volume in carotid artery, B: After administration (carotid artery; 1.0 mg/Kg i.v.): 26.3 mL/min | Blood flow volume in carotid artery, C: Increase degree (carotid artery; 1.0 mg/Kg i.v.): 7.0 mL/min | Blood flow volume in carotid artery, D: Increase rate (carotid artery; 1.0 mg/Kg i.v.): 33.2% | Increase in topical blood flow volume, Candate nucleus (candate nucleus; 0.3 mg/Kg i.v.): 0.19 ± 0.04 Δ μV | Increase in topical blood flow volume, Candate nucleus (candate nucleus; 1 mg/Kg i.v.): 0.35 ± 0.07 Δ μV

CC(C)CNc1nnc(-c2ccccc2)c2ccccc12 [compound 4]
inhibition at 10 mg/kg (blood platelets): 0%

CCC(C)(C)Nc1nnc(-c2ccccc2)c2ccccc12 [compound 12]
inhibition at 10 mg/kg (blood platelets): 0%

CCCC(C)Nc1nnc(-c2ccccc2)c2ccccc12 (stereo not shown) [compound 8]
inhibition at 10 mg/kg (blood platelets): 0%

CC(C)Nc1nnc(-c2ccccc2)c2ccccc12 [compound 2]
inhibition at 10 mg/kg (blood platelets): 7.1%

CCCCCCCNc1nnc(-c2ccccc2)c2ccccc12 [compound 19]
inhibition at 10 mg/kg (blood platelets): 0%

CCCCCCNc1nnc(-c2ccccc2)c2ccccc12 [compound 14]
inhibition at 10 mg/kg (blood platelets): 15.6%
